Active and inactive are the calls of the source.
Columns and labels:
cells [1] = assay type: functional, cell-based
cells [2] = assay type: functional, cell-based; remark: listed apart in the source
[3] = A549 cell cytotoxicity, dose response, cytotoxicity control, plate reader, cherry-pick, antagonist series (AID 743412); assay type: functional, cell-based
[4] = blockade of melanocortin 4 receptor signaling – cell-based, plate reader, cherry pick, counter-screen for LGR2 antagonist project, dose response (AID 743444); assay type: functional;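 also: transfected HEK 293 cells stimulated with alpha-MSH peptide; potency of inhibitors of the alpha-MSH evoked signal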
[5] = toxicity toward HepG2 liver cells – cell-based, plate reader, cherry-pick, antagonist series, cytotoxicity control, dose response (AID 743416); assay type: functional
[6] = viability loss in HEK293 cells – cell-based, plate reader, cherry-picked samples, cytotoxicity control, dose response (AID 743446); assay type: functional
[7] = blockers of bursicon-stimulated LGR2 cAMP reporter – cell-based, HEK293, CRE-luciferase reporter, cherry pick, set 2, dose response (AID 743343); assay type: functional;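 also: transfected cells were stimulated with diluted bursicon conditioned medium after compound addition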
[8] = HIV-1 AD8 envelope cell-cell fusion blockers – cherry-pick, dose response (AID 652062); assay type: functional, cell-based;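 also: luciferase signal from cell-cell fusion driven by HIV-1 clade B AD8 Env; potency is for inhibitors of fusion seen as a drop in luminescence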
[9] = blockers of HIV-1 ZM109 envelope-driven cell-cell fusion – HeLa effector, CEM target cells, luciferase, cherry-pick, dose response (AID 652058); assay type: functional, cell-based;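 also: luciferase signal from HIV-1 Env mediated cell-cell fusion of effector and target cells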
[10] = blockers of HIV-1 envelope-mediated cell-cell fusion – cherry-pick, dose response (AID 652057); assay type: functional, cell-based
[11] = molecular target: Induced myeloid leukemia cell differentiation protein Mcl-1 (Homo sapiens, UniProt Q07820); assay type: functional
BJ [12] = assay: BJ-TERT-LT-ST fibroblast viability loss – cell-based, RAS-independent, luminescence, dose response (AID 1935); assay type: functional; settings: Homo sapiens;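 also: BJ fibroblasts immortalized with TERT plus LT and ST oncogenes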
BJ [13] = assay: BJ-TERT fibroblast viability loss – cell-based, RAS-independent, luminescence, dose response (AID 1933); assay type: functional; settings: Homo sapiens
[14] = DRD fibroblast viability loss – cell-based, non-viral oncogenic, luminescence, dose response (AID 1934); assay type: functional; settings: Homo sapiens
BJ [15] = assay: cells; assay type: functional, cell-based; settings: Homo sapiens
[16] = molecular target: Glyceraldehyde-3-phosphate dehydrogenase (Homo sapiens, UniProt P04406)
Protein skinhead-1 = molecular target: T1, Protein skinhead-1 (Caenorhabditis elegans, UniProt P34707); assay type: functional
T1 sequence (P34707 whole entry): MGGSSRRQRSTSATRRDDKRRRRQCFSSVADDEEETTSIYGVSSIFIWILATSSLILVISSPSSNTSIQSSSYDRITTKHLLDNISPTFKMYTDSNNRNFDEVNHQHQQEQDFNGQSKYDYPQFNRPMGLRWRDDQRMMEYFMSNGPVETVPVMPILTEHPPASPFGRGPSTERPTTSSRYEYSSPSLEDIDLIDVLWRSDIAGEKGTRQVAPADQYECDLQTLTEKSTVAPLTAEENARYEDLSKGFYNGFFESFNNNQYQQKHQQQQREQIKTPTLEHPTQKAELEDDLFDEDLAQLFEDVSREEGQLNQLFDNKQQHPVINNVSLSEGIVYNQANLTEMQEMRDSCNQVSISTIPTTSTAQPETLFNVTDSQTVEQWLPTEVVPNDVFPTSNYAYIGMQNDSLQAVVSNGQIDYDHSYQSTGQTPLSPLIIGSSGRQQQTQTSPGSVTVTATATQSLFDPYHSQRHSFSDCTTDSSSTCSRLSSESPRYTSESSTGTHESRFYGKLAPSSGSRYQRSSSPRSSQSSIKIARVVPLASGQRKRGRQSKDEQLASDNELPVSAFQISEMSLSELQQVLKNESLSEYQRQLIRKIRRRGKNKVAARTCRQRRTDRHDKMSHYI

[17] = viability of uninfected HEp-2 cells – cell-based, HTS, cytotoxicity control for RSV inhibitor project, dose response (AID 2410); assay type: functional; settings: human respiratory syncytial virus
[18] = molecular target: Luciferin 4-monooxygenase (Photinus pyralis, UniProt P08659); assay: inhibition of purified Photinus pyralis luciferase – biochemical, luminescence, dose response (AID 1891)
[19] = Luminescence Cell-Based Dose Confirmation HTS to Identify Inhibitors of Platelet Dense Granule Release. [Related pubchem assays: 1663 (Primary HTS), 1678 (Summary of Project)]; assay type: functional
cells [20] = assay type: functional
[21] = molecular target: T2, Polyadenylate-binding protein 1 (Homo sapiens, UniProt P11940); assay: MLLE domain peptide-binding blockers, IC50 – biochemical, fluorescence polarization, FITC-PAM2 peptide, dose response (AID 602259); assay type: functional; settings: read-out: IC50_Mean
[22] = molecular target: T2, Polyadenylate-binding protein 1; assay: MLLE binding blockers, Cy5 peptide tracer – biochemical, fluorescence polarization, Cy5-PAM2 peptide, secondary, miRNA deadenylation inhibitor project, dose response (AID 602260); assay type: functional; settings: read-out: IC50_Mean
[23] = fluconazole-exposed Candida albicans growth modulators – fluorescence, retest, confirmation (AID 2467); assay type: functional, cell-based
[24] = NIH-3T3 fibroblast cytotoxicity, dose response, cytotoxicity control, cell-based, fluorescence, Alamar Blue, secondary assay (AID 2327); assay type: functional;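 also: NIH-3T3 mouse fibroblasts cultured with fluconazole at 8 µg/mL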
[25] = non-specific 3'UTR reporter inhibition in Clone20-Shn3RL – cell-based, Renilla luciferase, cherry-picked, counter-screen for Shn3 inhibitor project, dose response (AID 624133); assay type: functional
[26] = reduction of Shn3 3'UTR-driven luciferase in osteoblasts – cell-based, Clone20 osteoblasts, firefly luciferase, cherry-picked, dose response (AID 624132); assay type: functional;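 also: firefly luciferase luminescence from reporter carrying the Shn3 3'UTR in osteoblasts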
[27] = Luminescence Cell-Based Dose Response HTS to Identify Activators of Luciferase Translation or Activity in H4 […] Cells. [Related pubchem assays: 1829 (Project Summary), 1814 (Primary HTS)]; assay type: functional
H4 = assay: Luminescence Cell-Based Dose Response HTS to Identify Activators of 5'UTR Stem-Loop Driven Prion Protein mRNA Translation in H4 Neuroglioblastoma Cells. [Related pubchem assays: 1829 (Project Summary), 1814 (Primary HTS)]; assay type: functional; settings: Homo sapiens
Large T antigen = Large T antigen (Simian virus 40, UniProt P03070); assay type: functional, Betapolyomavirus macacae;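 also: Confirmatory-stage PubChem screen for compounds that inhibit SV40 T antigen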
[28] = P. falciparum Dd2 growth inhibitors, dose response, SYBR Green, cherry-picked samples (AID 1159567); assay type: functional, cell-based

T2 sequence (P11940 whole entry, the tested form may be a part): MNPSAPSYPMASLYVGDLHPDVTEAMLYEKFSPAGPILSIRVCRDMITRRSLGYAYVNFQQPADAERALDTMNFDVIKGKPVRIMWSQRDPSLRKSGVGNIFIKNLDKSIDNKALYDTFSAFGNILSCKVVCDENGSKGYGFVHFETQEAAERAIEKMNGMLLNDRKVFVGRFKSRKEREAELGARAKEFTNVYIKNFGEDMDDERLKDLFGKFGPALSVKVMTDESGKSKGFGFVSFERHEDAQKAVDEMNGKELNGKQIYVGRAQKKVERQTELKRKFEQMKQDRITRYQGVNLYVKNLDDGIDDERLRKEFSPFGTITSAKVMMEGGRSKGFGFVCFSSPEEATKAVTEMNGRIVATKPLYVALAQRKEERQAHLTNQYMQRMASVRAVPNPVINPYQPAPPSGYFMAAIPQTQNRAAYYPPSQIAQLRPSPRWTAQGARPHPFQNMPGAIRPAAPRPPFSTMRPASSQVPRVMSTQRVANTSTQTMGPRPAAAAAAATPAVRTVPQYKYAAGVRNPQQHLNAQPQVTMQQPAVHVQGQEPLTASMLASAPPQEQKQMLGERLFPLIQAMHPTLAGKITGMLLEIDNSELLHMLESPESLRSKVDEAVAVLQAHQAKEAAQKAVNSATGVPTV
Chain of Induced myeloid leukemia cell differentiation protein Mcl-1 (Q07820 whole entry): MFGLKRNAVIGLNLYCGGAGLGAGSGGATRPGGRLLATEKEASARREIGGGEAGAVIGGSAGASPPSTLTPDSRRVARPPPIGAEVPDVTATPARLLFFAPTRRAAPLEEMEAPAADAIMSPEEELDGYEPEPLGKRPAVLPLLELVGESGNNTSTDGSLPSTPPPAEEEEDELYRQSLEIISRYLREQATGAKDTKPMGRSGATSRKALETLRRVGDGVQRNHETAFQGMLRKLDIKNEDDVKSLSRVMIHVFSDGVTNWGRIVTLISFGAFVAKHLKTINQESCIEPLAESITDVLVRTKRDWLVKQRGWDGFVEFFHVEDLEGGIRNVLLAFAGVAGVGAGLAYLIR
Chain of Luciferin 4-monooxygenase (P08659 whole entry): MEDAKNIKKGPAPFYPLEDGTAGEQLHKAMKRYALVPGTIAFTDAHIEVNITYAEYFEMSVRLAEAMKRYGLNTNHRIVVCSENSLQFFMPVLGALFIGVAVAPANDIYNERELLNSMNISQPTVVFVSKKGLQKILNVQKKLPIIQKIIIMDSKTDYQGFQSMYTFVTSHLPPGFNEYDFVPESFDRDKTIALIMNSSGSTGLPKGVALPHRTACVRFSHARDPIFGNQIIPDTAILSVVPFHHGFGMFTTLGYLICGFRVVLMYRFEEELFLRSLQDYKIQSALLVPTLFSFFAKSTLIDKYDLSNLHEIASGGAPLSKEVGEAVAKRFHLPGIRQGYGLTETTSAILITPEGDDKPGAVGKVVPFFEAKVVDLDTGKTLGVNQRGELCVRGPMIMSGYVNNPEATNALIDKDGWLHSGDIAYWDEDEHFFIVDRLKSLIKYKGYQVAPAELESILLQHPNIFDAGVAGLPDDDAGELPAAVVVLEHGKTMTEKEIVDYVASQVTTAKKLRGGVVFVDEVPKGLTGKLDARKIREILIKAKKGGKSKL
Chain of Glyceraldehyde-3-phosphate dehydrogenase (P04406 whole entry): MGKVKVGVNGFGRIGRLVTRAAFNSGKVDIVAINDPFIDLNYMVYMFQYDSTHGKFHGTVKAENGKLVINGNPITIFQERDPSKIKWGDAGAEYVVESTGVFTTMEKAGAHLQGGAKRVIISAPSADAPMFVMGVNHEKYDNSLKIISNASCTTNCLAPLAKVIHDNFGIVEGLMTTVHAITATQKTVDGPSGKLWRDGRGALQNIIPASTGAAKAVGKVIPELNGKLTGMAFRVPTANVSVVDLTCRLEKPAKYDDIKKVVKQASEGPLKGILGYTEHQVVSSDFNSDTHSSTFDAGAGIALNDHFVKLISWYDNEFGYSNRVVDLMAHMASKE
Chain of Large T antigen (P03070 whole entry): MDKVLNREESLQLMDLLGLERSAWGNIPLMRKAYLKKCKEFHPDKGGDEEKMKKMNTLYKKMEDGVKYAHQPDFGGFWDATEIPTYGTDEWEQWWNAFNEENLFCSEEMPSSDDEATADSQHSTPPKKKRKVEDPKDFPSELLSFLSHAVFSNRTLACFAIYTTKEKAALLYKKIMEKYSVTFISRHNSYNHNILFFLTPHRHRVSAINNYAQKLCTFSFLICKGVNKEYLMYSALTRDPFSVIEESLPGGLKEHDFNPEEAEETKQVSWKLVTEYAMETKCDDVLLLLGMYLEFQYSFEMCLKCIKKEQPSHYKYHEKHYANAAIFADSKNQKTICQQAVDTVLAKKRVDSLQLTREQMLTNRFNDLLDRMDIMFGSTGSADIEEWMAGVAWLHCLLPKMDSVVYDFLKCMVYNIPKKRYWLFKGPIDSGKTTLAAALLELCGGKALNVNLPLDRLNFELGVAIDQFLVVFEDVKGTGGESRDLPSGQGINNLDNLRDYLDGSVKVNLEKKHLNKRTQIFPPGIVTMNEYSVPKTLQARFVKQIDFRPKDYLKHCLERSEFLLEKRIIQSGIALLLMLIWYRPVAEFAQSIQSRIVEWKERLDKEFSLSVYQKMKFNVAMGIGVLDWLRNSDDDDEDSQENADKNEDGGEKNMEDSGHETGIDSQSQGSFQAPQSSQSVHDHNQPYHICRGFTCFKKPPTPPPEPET

Cc1ccc(S(=O)(=O)N2CCN(c3ccccn3)CC2)cc1
EC50 (cells [1]): > 350 µM (not active)
EC50 (cells [2]): > 350 µM (not active)

COc1cccc(-c2ncn(CCc3ccccc3OC)c2CC(C)C)c1
AC50 [3]: 23.6 µM (active)
AC50 [4]: 22.2 µM (active)
AC50 [5]: 22.3 µM (active)
AC50 [6]: > 52 µM (inactive)
AC50 [7]: 23.6 µM (active)

COc1ccc(CNC(=O)N(C)C[C@H]2OCc3ccccc3-c3c(n(C)c4ccccc34)C(=O)N([C@@H](C)CO)C[C@@H]2C)cc1
AC50 [8]: < 0.26 µM (active)
AC50 [9]: < 0.26 µM (active)
AC50 [10]: < 0.26 µM (active)

Cn1c(N)c(C(=O)COC(=O)c2cc(-c3ccco3)nc3ccccc23)c(=O)n(Cc2ccccc2)c1=O
IC50 [11]: 2.95 µM (active)

Cc1ccc(/C=N/NC(=O)c2ccc3ccccc3c2)s1
EC50 (BJ [12]): 62.1 µM (active)
EC50 (BJ [13]): 4.71 µM (inconclusive)
EC50 [14]: 18 µM (inconclusive)
EC50 (BJ [15]): 96.4 µM (inconclusive)

CN(Cc1ccccc1)S(=O)(=O)c1ccc(C(=O)O)o1
IC50 [16]: > 100 µM (not active)

COc1cccc(/C=C2\CC(C)Cc3c2nc2ccccc2c3C(=O)O)c1OC (configuration not stated)
IC50 (Protein skinhead-1): > 100 µM (inactive)

O=C(Nc1cc2ccccc2oc1=O)c1ccccc1
AC50 [3]: 31.5 µM (active)
AC50 [4]: 3.08 µM (active)
AC50 [5]: 41 µM (active)
AC50 [6]: 37.2 µM (active)
AC50 [7]: 1.69 µM (active)

CC(=O)Nc1ccc(NC(=O)CCC(=O)OCC(=O)c2ccc(F)cc2)cc1
EC50 (cells [1]): > 350 µM (not active)
EC50 (cells [2]): > 350 µM (not active)

Cc1ccc2nc(-c3ccc(NC(=O)COC(=O)c4ccco4)cc3)sc2c1
AC50 [4]: 3.55 µM (active)
CC50 [17]: 14.1 µM (active)
AC50 [7]: 2.95 µM (active)

O=C(/C=C/Nc1ccc(F)cc1F)c1cccs1
EC50 [18]: 1.09 µM (active)
EC50 [19]: 4.23 µM (active)
IC50 (Protein skinhead-1): 73.4 µM (inactive)

COc1ccccc1CNC(=O)C1CCN(C(=O)N(C)C)CC1
IC50 (Protein skinhead-1): > 100 µM (inactive)

COc1cccc(N2CCN(C3=C(Cl)C(=O)N(c4ccc(C(F)(F)F)cc4)C3=O)CC2)c1
IC50 [16]: > 50 µM (inconclusive)

COC(=O)CCn1c(C)cc(C(=O)COc2ccccc2C(N)=O)c1C
EC50 (BJ [12]): > 150 µM (inconclusive)
EC50 (BJ [13]): 58.1 µM (active)
IC50 (cells [20]): 19.8 µM (active)
EC50 [14]: > 150 µM (not active)
CC50 [17]: 9.72 µM (active)
EC50 (BJ [15]): > 150 µM (not active)

O=C(O)CCCCCN1C(=O)C(O)=C(C(=O)/C=C/c2ccccc2)C1c1ccccc1[N+](=O)[O-] (configuration not stated)
IC50 [21]: > 66 µM (inactive)
IC50 [22]: > 66 µM (inactive)

CCCSc1cc(N)cc([N+](=O)[O-])c1
EC50 [23]: > 38 µM (not active)
EC50 [24]: > 160 µM (inconclusive)

Clc1ccc(-n2nnc(-c3nccs3)n2)cc1Cl
IC50 (Protein skinhead-1): > 100 µM (inactive)

CCOC(=O)c1cnc2ccc(Cl)cc2c1NCCN(C)C
IC50 [21]: > 66 µM (inactive)
IC50 [22]: > 66 µM (inactive)

COc1cc(/C=C/C(=O)Nc2cc(S(=O)(=O)N3CCOCC3)ccc2N2CCCC2)cc(OC)c1OC
IC50 [21]: > 66 µM (inactive)
IC50 [22]: > 66 µM (inactive)

COC(=O)c1ccc(N2CCN(S(=O)(=O)c3ccc(C)cc3)CC2)c([N+](=O)[O-])c1
AC50 [25]: 2.95 µM (active)
AC50 [26]: 3.88 µM (active)

Cc1nc2ccccc2nc1OCc1ccccc1
IC50 (Protein skinhead-1): 18.2 µM (active)

Cc1ccc2c(c1)NC(=O)c1cccnc1N2
IC50 [11]: 10.5 µM (not active)
EC50 [27]: 61.7 µM (active)
EC50 (H4): > 120 µM (not active)
IC50 (Large T antigen): 10.2 µM (active)

Cc1onc(-c2ccccc2)c1NC(=O)N(Cc1ccccc1)C(C)C
EC50 (cells [1]): > 350 µM (not active)
EC50 (cells [2]): > 350 µM (not active)

O=C(Nc1ccc(Cl)cc1)Nc1nnc(/C=C/c2ccccc2)s1
IC50 [11]: 5.89 µM (active)

Clc1cccc(/C=N/Nc2nc(Cl)nc3ccccc23)c1
IC50 [11]: 19 µM (not active)

O=C(NCC1CCCO1)c1cc2c([nH]c3ccccc32)c(-c2ccc(F)cc2)n1 (configuration not stated)
EC50 (BJ [12]): > 150 µM (not active)
EC50 (BJ [13]): 30.7 µM (active)
EC50 [14]: 23.6 µM (active)
EC50 (BJ [15]): 23.9 µM (active)

CCOC(=O)Cc1csc(NC(=O)c2ccc3ncsc3c2)n1
EC50 [23]: > 38 µM (not active)
EC50 [24]: > 160 µM (inactive)

CCOC(=O)c1sc(=S)n(-c2cccc(OC)c2)c1N
IC50 [21]: > 66 µM (inactive)
IC50 [22]: > 66 µM (inactive)

CN(C)CC(=O)N1[C@H](CO)[C@H](c2ccc(-c3cccc(C(=O)N(C)C)c3)cc2)[C@@H]1C#N
AC50 [28]: 7.56 µM (active)

O=C(Nc1ccc(Cl)cc1)Nc1ccccc1C(=O)O
EC50 [18]: < 0.088 µM (active)
AC50 [3]: > 52 µM (inactive)
EC50 [19]: 5.21 µM (active)
AC50 [4]: 6.99 µM (active)
AC50 [7]: 9.59 µM (active)

CCOc1ccc2nc(NN=C3C(=O)CC(C)(C)CC3=O)sc2c1
EC50 [23]: 9.16 µM (active)
EC50 [24]: > 160 µM (inactive)

COc1ccc(S(=O)(=O)Nc2ccc3c(c2)CC(=O)N([C@@H](C)CO)C[C@H](C)[C@H](CN(C)S(=O)(=O)c2cccs2)O3)cc1
AC50 [8]: 25.1 µM (active)
AC50 [9]: 1.15 µM (active)
AC50 [10]: 7.42 µM (active)

CN(C)c1ccc(C(=O)N/N=C/c2cc(Br)cc(Br)c2O)cc1
EC50 [23]: > 38 µM (not active)
EC50 [24]: 14 µM (active)

COc1ccc(Nc2nc(C(=O)NCCCN3CCOCC3)cs2)cc1
IC50 (Protein skinhead-1): > 100 µM (inactive)

O=C(C[C@@H]1C=C[C@H](NC(=O)c2ccccc2)[C@H](CO)O1)NCc1ccc(Oc2ccccc2)cc1
AC50 [8]: 35 µM (active)
AC50 [9]: 24.1 µM (active)
AC50 [10]: 24.7 µM (active)

CCOC(=O)c1cccc(NC2c3ccccc3C(=O)N2Cc2ccco2)c1 (configuration not stated)
AC50 [25]: 1.94 µM (active)
AC50 [26]: 4.26 µM (active)

CCCCN(CCCC)S(=O)(=O)c1ccc(C(=O)Nc2nnc(COC)o2)cc1
EC50 [23]: 2.92 µM (active)
EC50 [24]: > 150 µM (inconclusive)
